In brackets after ≈: the same amount, converted by molar mass. Like-named read-outs stand apart in the source and are kept apart here.
Test system: pathogenic bacteria
Test: MIC by microdilution broth method (NCCLS M7-A4), in vitro antibacterial activity
Format: cell-based
Method in brief: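 Broth microdilution per NCCLS M7-A4: two-fold serial dilutions in cation-adjusted Mueller-Hinton broth, inoculum about 5×10^4 CFU/well. Trays incubated 16–20 h at 35 °C. MIC read by comparing growth against no-compound growth controls.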

[1] = Staphylococcus aureus, Organism A: Staphylococcus aureus OC4172, read-out: MIC
[2] = Streptococcus pneumoniae, ATCC49619, Organism E: Streptococcus pneumoniae ATCC 49619, read-out: MIC
[3] = Streptococcus pneumoniae, Organism C: fluoroquinolone-resistant clinical isolate of Streptococcus pneumoniae (QRDR amino acid substitutions)
[4] = Streptococcus pneumoniae, Organism D: fluoroquinolone-resistant clinical isolate of Streptococcus pneumoniae (QRDR amino acid substitutions)
[5] = Streptococcus pneumoniae, Organism B: fluoroquinolone-resistant clinical isolate of Streptococcus pneumoniae (QRDR amino acid substitutions)

Row | SMILES | MIC [1] | MIC [2] | MIC [3] | MIC [4] | MIC [5]
1 | Cc1c(N2CCC/C(=C(\F)CN)C2)c(F)cc2c(=O)c(C(=O)O)cn(C3CC3)c12 [Compound 459, 7-[(E)-3-(2-Amino-1-fluoro-ethylidene)-piperidin-1-yl]-1-cyclopropyl-6-fluoro-8-methyl-4-oxo-1,4-dihydro-quinoline-3-carboxylic Acid] | ≤ 0.015 µg/mL | 0.06 µg/mL (≈ 0.149 µM) | 0.25 µg/mL (≈ 0.62 µM) | 0.12 µg/mL (≈ 0.297 µM) | 
2 | COc1c(N2CCC(=C(F)CCN)CC2)c(F)cc2c(=O)c(C(=O)O)cn(C3CC3)c12 [Compound 467, 7-{4-[3-Amino-1-fluoro-propylidene]-piperidin-1-yl}-1-cyclopropyl-6-fluoro-8-methoxy-4-oxo-1,4-dihydro-quinoline-3-carboxylic Acid] | 0.12 µg/mL (≈ 0.277 µM) | 0.5 µg/mL (≈ 1.15 µM) | 4 µg/mL (≈ 9.23 µM) | 1 µg/mL (≈ 2.31 µM) | 0.5 µg/mL (≈ 1.15 µM)
3 | C[C@H]1COc2c(N3CCC/C(=C(/F)CN)CC3)c(F)cc3c(=O)c(C(=O)O)cn1c23 [Compound 491, (3S)-9-[(Z)-4-(2-Amino-1-fluoro-ethylidene)-azepan-1-yl]-8-fluoro-3-methyl-6-oxo-2,3-dihydro-6H-1-oxa-3a-aza-phenalene-5-carboxylic Acid] | 0.12 µg/mL (≈ 0.286 µM) | 1 µg/mL (≈ 2.38 µM) | 8 µg/mL (≈ 19.1 µM) | 16 µg/mL (≈ 38.1 µM) | 
4 | C[C@H]1COc2c(N3CCC/C(=C(\F)CN)CC3)c(F)cc3c(=O)c(C(=O)O)cn1c23 [Compound 492, (3S)-9-[(E)-4-(2-Amino-1-fluoro-ethylidene)-azepan-1-yl]-8-fluoro-3-methyl-6-oxo-2,3-dihydro-6H-1-oxa-3a-aza-phenalene-5-carboxylic Acid] | 0.06 µg/mL (≈ 0.143 µM) | 0.25 µg/mL (≈ 0.596 µM) | 4 µg/mL (≈ 9.54 µM) | 8 µg/mL (≈ 19.1 µM) | 
5 | C[C@H]1COc2c(N3CCOC/C(=C(\F)CN)C3)c(F)cc3c(=O)c(C(=O)O)cn1c23 [Compound 493, 9-[(Z)-6-(2-Amino-1-fluoro-ethylidene)-[1,4]oxazepan-4-yl]-8-fluoro-(3S)-3-methyl-6-oxo-2,3-dihydro-6H-1-oxa-3a-aza-phenalene-5-carboxylic Acid] | 0.06 µg/mL (≈ 0.142 µM) | 0.5 µg/mL (≈ 1.19 µM) | > 16 µg/mL | 1 µg/mL (≈ 2.37 µM) | 
6 | C[C@H]1COc2c(N3CCOC/C(=C(/F)CN)C3)c(F)cc3c(=O)c(C(=O)O)cn1c23 [Compound 494, 9-[(E)-6-(2-Amino-1-fluoro-ethylidene)-[1,4]oxazepan-4-yl]-8-fluoro-(3S)-3-methyl-6-oxo-2,3-dihydro-6H-1-oxa-3a-aza-phenalene-5-carboxylic Acid] | 1 µg/mL (≈ 2.37 µM) | 8 µg/mL (≈ 19 µM) | > 16 µg/mL | > 16 µg/mL | 
7 | NC/C(F)=C1\CCCN(c2nc3c(cc2F)c(=O)c(C(=O)O)cn3C2CC2)CC1 [Compound 495, (Z)-7-[4-(2-Amino-1-fluoro-ethylidene)-azepan-1-yl]-1-cyclopropyl-6-fluoro-4-oxo-1,4-dihydro-[1,8]naphthyridine-3-carboxylic acid] | 0.25 µg/mL (≈ 0.618 µM) | 1 µg/mL (≈ 2.47 µM) | 2 µg/mL (≈ 4.95 µM) |  | 
8 | NC/C(F)=C1/CCCN(c2nc3c(cc2F)c(=O)c(C(=O)O)cn3C2CC2)CC1 [Compound 496, (E)-7-[4-(2-Amino-1-fluoro-ethylidene)-azepan-1-yl]-1-cyclopropyl-6-fluoro-4-oxo-1,4-dihydro-[1,8]naphthyridine-3-carboxylic acid] | 0.25 µg/mL (≈ 0.618 µM) | 1 µg/mL (≈ 2.47 µM) | 0.25 µg/mL (≈ 0.618 µM) | 16 µg/mL (≈ 39.6 µM) | 
9 | NC/C(F)=C1/COCCN(c2nc3c(cc2F)c(=O)c(C(=O)O)cn3C2CC2)C1 [Compound 497, (Z)-7-[6-(2-Amino-1-fluoro-ethylidene)-[1,4]oxazepan-4-yl]-1-cyclopropyl-6-fluoro-4-oxo-1,4-dihydro-[1,8]naphthyridine-3-carboxylic acid] | 1 µg/mL (≈ 2.46 µM) | 4 µg/mL (≈ 9.84 µM) | > 16 µg/mL | > 16 µg/mL | > 1 µg/mL
10 | NC/C(F)=C1\COCCN(c2nc3c(cc2F)c(=O)c(C(=O)O)cn3C2CC2)C1 [Compound 498, (E)-7-[6-(2-Amino-1-fluoro-ethylidene)-[1,4]oxazepan-4-yl]-1-cyclopropyl-6-fluoro-4-oxo-1,4-dihydro-[1,8]naphthyridine-3-carboxylic acid] | 1 µg/mL (≈ 2.46 µM) | 16 µg/mL (≈ 39.4 µM) | > 16 µg/mL | > 16 µg/mL | 4 µg/mL (≈ 9.84 µM)
11 | C[C@H]1CN(c2nc3c(cc2F)c(=O)c(C(=O)O)cn3C2CC2)C/C(=C(/F)CN)CO1 [Compound 499, (Z)-7-[6-(2-Amino-1-fluoro-ethylidene)-(2S)-2-methyl-[1,4]oxazepan-4-yl]-1-cyclopropyl-6-fluoro-4-oxo-1,4-dihydro-[1,8]naphthyridine-3-carboxylic acid] | 8 µg/mL (≈ 19 µM) | > 16 µg/mL | > 16 µg/mL | > 16 µg/mL | > 16 µg/mL
12 | C[C@@H]1CN(c2nc3c(cc2F)c(=O)c(C(=O)O)cn3C2CC2)C/C(=C(/F)CN)CO1 [Compound 500, (Z)-7-[6-(2-Amino-1-fluoro-ethylidene)-(2R)-2-methyl-[1,4]oxazepan-4-yl]-1-cyclopropyl-6-fluoro-4-oxo-1,4-dihydro-[1,8]naphthyridine-3-carboxylic acid] | 2 µg/mL (≈ 4.76 µM) | 16 µg/mL (≈ 38.1 µM) | > 16 µg/mL | > 16 µg/mL | > 16 µg/mL
13 | NC/C(F)=C1\CCCN(c2cc3c(cc2F)c(=O)c(C(=O)O)cn3C2CC2)CC1 [Compound 501, (Z)-7-[4-(2-Amino-1-fluoro-ethylidene)-azepan-1-yl]-1-cyclopropyl-6-fluoro-4-oxo-1,4-dihydro-quinoline-3-carboxylic acid] | 0.25 µg/mL (≈ 0.62 µM) | 2 µg/mL (≈ 4.96 µM) | 8 µg/mL (≈ 19.8 µM) | 16 µg/mL (≈ 39.7 µM) | 
14 | NC/C(F)=C1/CCCN(c2cc3c(cc2F)c(=O)c(C(=O)O)cn3C2CC2)CC1 [Compound 502, (E)-7-[4-(2-Amino-1-fluoro-ethylidene)-azepan-1-yl]-1-cyclopropyl-6-fluoro-4-oxo-1,4-dihydro-quinoline-3-carboxylic acid] | 0.5 µg/mL (≈ 1.24 µM) | 4 µg/mL (≈ 9.92 µM) | 16 µg/mL (≈ 39.7 µM) | > 16 µg/mL | 16 µg/mL (≈ 39.7 µM)
15 | NC/C(F)=C1/COCCN(c2cc3c(cc2F)c(=O)c(C(=O)O)cn3C2CC2)C1 [Compound 503, (Z)-7-[6-(2-Amino-1-fluoro-ethylidene)-[1,4]oxazepan-4-yl]-1-cyclopropyl-6-fluoro-4-oxo-1,4-dihydro-quinoline-3-carboxylic acid] | 4 µg/mL (≈ 9.87 µM) | 16 µg/mL (≈ 39.5 µM) | > 16 µg/mL | > 16 µg/mL | 
16 | NC/C(F)=C1\COCCN(c2cc3c(cc2F)c(=O)c(C(=O)O)cn3C2CC2)C1 [Compound 504, (E)-7-[6-(2-Amino-1-fluoro-ethylidene)-[1,4]oxazepan-4-yl]-1-cyclopropyl-6-fluoro-4-oxo-1,4-dihydro-quinoline-3-carboxylic acid] | 2 µg/mL (≈ 4.93 µM) | 16 µg/mL (≈ 39.5 µM) | 8 µg/mL (≈ 19.7 µM) | 4 µg/mL (≈ 9.87 µM) | 
17 | COc1c(N2CCC/C(=C(/F)CN)CC2)c(F)cc2c(=O)c(C(=O)O)cn(C3CC3)c12 [Compound 505, (Z)-7-[4-(2-Amino-1-fluoro-ethylidene)-azepan-1-yl]-1-cyclopropyl-6-fluoro-8-methoxy-4-oxo-1,4-dihydro-quinoline-3-carboxylic acid] | 0.12 µg/mL (≈ 0.277 µM) | 0.25 µg/mL (≈ 0.577 µM) | 4 µg/mL (≈ 9.23 µM) | 1 µg/mL (≈ 2.31 µM) | 
18 | COc1c(N2CCC/C(=C(\F)CN)CC2)c(F)cc2c(=O)c(C(=O)O)cn(C3CC3)c12 [Compound 506, (E)-7-[4-(2-Amino-1-fluoro-ethylidene)-azepan-1-yl]-1-cyclopropyl-6-fluoro-8-methoxy-4-oxo-1,4-dihydro-quinoline-3-carboxylic acid] | ≤ 0.015 µg/mL | 0.25 µg/mL (≈ 0.577 µM) | 2 µg/mL (≈ 4.61 µM) |  | 
19 | COc1c(N2CCOC/C(=C(\F)CN)C2)c(F)cc2c(=O)c(C(=O)O)cn(C3CC3)c12 [Compound 507, (Z)-7-[6-(2-Amino-1-fluoro-ethylidene)-[1,4]oxazepan-4-yl]-1-cyclopropyl-6-fluoro-8-methoxy-4-oxo-1,4-dihydro-quinoline-3-carboxylic acid] | 0.06 µg/mL (≈ 0.138 µM) | 0.25 µg/mL (≈ 0.574 µM) | 2 µg/mL (≈ 4.59 µM) | 2 µg/mL (≈ 4.59 µM) | 0.12 µg/mL (≈ 0.276 µM)
20 | COc1c(N2CCOC/C(=C(/F)CN)C2)c(F)cc2c(=O)c(C(=O)O)cn(C3CC3)c12 [Compound 508, (E)-7-[6-(2-Amino-1-fluoro-ethylidene)-[1,4]oxazepan-4-yl]-1-cyclopropyl-6-fluoro-8-methoxy-4-oxo-1,4-dihydro-quinoline-3-carboxylic acid] | 0.12 µg/mL (≈ 0.276 µM) | 1 µg/mL (≈ 2.3 µM) | > 16 µg/mL | 8 µg/mL (≈ 18.4 µM) | ≤ 4 µg/mL

From patent US20090156577A1, “7-AMINO ALKYLIDENYL-HETEROCYCLIC QUINOLONES AND NAPHTHYRIDONES” (priority 2004, published 2009)
